Measurements: article PMC11412489, “Coumarin derivatives as new anti-biofilm agents against Staphylococcus aureus” (PLOS ONE, 2024)
Entries after “also recorded” stand apart in the source; their conditions may differ.

Assays:
[1] = system: S. aureus; test: Antibacterial activity (bacterial growth inhibition); type: cell-based, Staphylococcus aureus; settings: at 100 μg/mL; for inhibition at 100 µg/mL: Staphylococcus aureus, read-out: Antibacterial Activity (% Inhibition ± SEM)
[2] = system: biofilm of S. aureus ATCC 6538; test: 96-well plate crystal violet assay for biofilm inhibition; type: cell-based, Staphylococcus aureus; settings: at 100 μg/mL, biofilm of S. aureus, 24 hours; for inhibition at 100 µg/mL: Staphylococcus aureus, ATCC6538, read-out: Antibiofilm Activity (% Inhibition ± SEM)
Procedure: The quantitative determination of biofilm inhibition was carried out by the crystal violet assay on a sterile 96-well plate with slight modifications. The glycerol stock of S. aureus was revived overnight at 37°C at 80 rpm. The overnight culture was then diluted 100 folds in fresh BHI broth, supplemented with 0.25% glucose. The cell density was adjusted to 1×10^7 and 195μL of the cell suspension was added in 96-well plate. […] Following that, the plate was washed with sterile distilled water in order to decant the non-adherent cells, and media. The plate was then dried at 60°C for 1 hour, and 200 μL of 0.1% (w/v) crystal violet was added to stain biofilm for 20 minutes. The plate was washed again, air dried, and dispensed 30% (v/v) acetic acid in each well to dissolve the biofilm. The inhibition of biofilm formation was analyzed by measuring the absorbance at 595 nm using the microplate reader (Multiskan Sky, Thermo Scientific, USA). The percent inhibition of biofilm formation was calculated via the following formula: 100−ƛTreated−ƛBlank/ƛControl−ƛBlank×100 Whereƛ=absorbance

| Compound | inhibition at 100 µg/mL [1] | inhibition at 100 µg/mL [2] | Antibiofilm Activity (% Inhibition ± SEM) [2] | Antibacterial Activity (% Inhibition ± SEM) [1] |
| --- | --- | --- | --- | --- |
| O=c1oc2ccccc2cc1-c1csc(N/N=C/c2cccc(Cl)c2)n1 [Compound 18, (E)-3-(2-(2-(3-Chlorobenzylidene)hydrazinyl)thiazol-4-yl)-2H-chromen-2-one] | 32 ± 8.97% | 25 ± 5.26% |  |  |
| O=c1oc2ccccc2cc1-c1csc(N/N=C/c2ccc(Cl)cc2Cl)n1 [Compound 20, (E)-3-(2-(2-(2,4-Dichlorobenzylidene)hydrazinyl)thiazol-4-yl)-2H-chromen-2-one] |  |  | No Inhibition |  |
| Cc1ccc2oc(=O)c(/C=N/Nc3nc(-c4ccc(Cl)cc4)cs3)c(Cl)c2c1 [Compound 7, (E)-4-Chloro-3-((2-(4-(4-chlorophenyl)thiazol-2-yl)hydrazono)methyl)-6-methyl-2H-chromen-2-one] | 41 ± 11.1% |  | No Inhibition |  |
| C/C(=N\Nc1nc(-c2ccc(C#N)cc2)cs1)c1cc2ccccc2oc1=O [Compound 14, (E)-4-(2-(2-(1-(2-Oxo-2H-chromen-3-yl)ethylidene)hydrazinyl)thiazol-4-yl)benzonitrile] | 61 ± 9.33% | 68 ± 6.63% | induced biofilm inhibition; also recorded: dual anti-bacterial and anti-biofilm effect |  |
| C/C(=N\NC(N)=S)c1cc2ccccc2oc1=O [Compound 9, (E)-2-(1-(2-Oxo-2H-chromen-3-yl)ethylidene)hydrazinecarbothioamide] | 55 ± 5.43% | 22% | No Inhibition |  |
| O=c1oc2ccccc2cc1-c1csc(N/N=C/c2ccccc2)n1 [Compound 16, (E)-3-(2-(2-Benzylidenehydrazinyl)thiazol-4-yl)-2H-chromen-2-one] |  |  | No inhibition |  |
| O=c1oc2ccccc2cc1-c1csc(N/N=C/c2ccccc2[N+](=O)[O-])n1 [Compound 21, (E)-3-(2-(2-(2-Nitrobenzylidene)hydrazinyl)thiazol-4-yl)-2H-chromen-2-one] |  |  | No Inhibition |  |
| C/C(=N\Nc1nc(-c2ccc(Cl)c(Cl)c2)cs1)c1cc2ccccc2oc1=O [Compound 12, (E)-3-(1-(2-(4-(3,4-Dichlorophenyl)thiazol-2-yl)hydrazono)ethyl)-2H-chromen-2-one] |  |  | No Inhibition |  |
| C/C(=N\Nc1nc(-c2cccc([N+](=O)[O-])c2)cs1)c1cc2ccccc2oc1=O [Compound 13, (E)-3-(1-(2-(4-(3-Nitrophenyl)thiazol-2-yl) hydrazono)ethyl)-2H-chromen-2-one] |  |  | No Inhibition | No Inhibition |
| O=c1oc2ccccc2cc1-c1csc(N/N=C/c2ccc(Cl)cc2)n1 [Compound 19, (E)-3-(2-(2-(4-Chlorobenzylidene)hydrazinyl)thiazol-4-yl)-2H-chromen-2-one] |  | 37 ± 6.98% |  | No Inhibition |
| Cc1ccc2oc(=O)c(/C=N/Nc3nc(-c4ccc(Br)cc4)cs3)c(Cl)c2c1 [Compound 6, (E)-3-((2-(4-(4-Bromophenyl)thiazol-2-yl)hydrazono)methyl)-4-chloro-6-methyl-2H-chromen-2-one] | 72 ± 7.22% | 61 ± 4.05% | induced biofilm inhibition; also recorded: dual anti-bacterial and anti-biofilm effect |  |
| Cc1ccc2oc(=O)c(/C=N/NC(N)=S)c(Cl)c2c1 [Compound 1, (E)-2-((4-Chloro-6-methyl-2-oxo-2H-chromen-3-yl)methylene)hydrazinecarbothioamide] |  |  | inactive | inactive |
| COc1ccc(-c2csc(N/N=C/c3c(Cl)c4cc(C)ccc4oc3=O)n2)cc1 [Compound 8, (E)-4-Chloro-3-((2-(4-(4-methoxyphenyl)thiazol-2-yl)hydrazono)methyl)-6-methyl-2H-chromen-2-one] | 52 ± 5.08% | 66 ± 5.11% | induced biofilm inhibition; also recorded: dual anti-bacterial and anti-biofilm effect |  |
